# Measurements: patent US11957652B2, “Compositions comprising citrulline and leucine and their use in the treatment of diabetes and metabolic syndrome” (SOCIÉTÉ DES PRODUITS NESTLÉ S.A., priority 2013, dated 2024)
# Tested on: rats fed a high fat diet
# Assay: Fasting glucose and insulin plasma levels in rats fed a high fat diet
# Type: in vivo, rat
# Details: rats on high fat diet, 1 g/kg daily of citrulline or leucine, or 1.0 g/kg leucine and 1.0 g/kg citrulline; for fasting plasma glucose levels (glycemia): compared to high fat diet alone (FIG. 1); for fasting insulin plasma levels (insulinemia): compared to high fat diet alone and to chow-fed healthy rats (FIG. 2)
# Protocol: Compositions comprising citrulline, leucine, or […] were tested for their effect on fasting glucose levels and insulin plasma levels. Briefly, rats were split into six groups and fed either chow, a high fat diet, a high fat diet with 1 g/kg leucine daily, a high fat diet with 0.2 g/kg citrulline, a high fat diet with 1 g/kg citrulline daily or a high fat diet with a composition comprising 1.0 g/kg leucine and 1.0 g/kg citrulline.
Compound,fasting plasma glucose levels (glycemia),fasting insulin plasma levels (insulinemia)
NC(=O)NCCC[C@H](N)C(=O)O [citrulline],decrease,decrease
CC(C)C[C@H](N)C(=O)O [leucine],decrease,decrease
